Test results: patent US10876058B2, “Method for prevention of biodeterioration of fuels” (priority 2013, dated 2020)
Residues, ends and D or L forms follow the SMILES beside them. No end group written: not given here. *: point of attachment. βNA = c1ccc2cc(N*)ccc2c1

Legend:
[1] = test system: environmental bacteria (Pseudomonas, Acinetobacter, Marinobacter, and Dietzia); test: Efflux pump blocker growth inhibition in 1:1 fuel-minimal media mixtures; type: cell-based; details: for bacterial growth inhibition: fuel present (FIGS. 8 and 10)
Description: (§1) C-capped dipeptide efflux pump blocker, Phe-Arg β-naphthylamide dihydrochloride (MC-207,110) (Sigma Aldrich) was added to the fuel phase and the aqueous (minimal media M9, Bushnell-Haas, or water) phase of 1:1 fuel-minimal media mixtures containing environmental bacteria (Pseudomonas, Acinetobacter, Marinobacter, and Dietzia) at concentrations ranging from 1 to 1×10^9 cells/mL. Phe-Arg β-naphthylamide dihydrochloride was added to the fuel at concentrations of 0 μg/mL, 20 μg/mL, 40 μg/mL, 60 μg/mL, 80 μg/mL, and 100 μg/mL. Control experiments were performed by adding 0 μg/mL to 120 μg/mL of Phe-Arg β-naphthylamide to minimal media containing bacteria and glycerol as the energy source, but not fuel.
(§2) The antimicrobial effect of the efflux pump blocker was established daily by measuring growth through absorbance readings (OD600), DNA quantitation through qPCR, and colony counting techniques.

[2] = test system: Pseudomonas aeruginosa; test: Efflux pump blocker growth inhibition, Pseudomonas aeruginosa (FIG. 10); type: cell-based; details: fuel present (FIG. 10)
Description: as §1, §2

[3] = test system: Acinetobacter venetianus; test: Efflux pump blocker growth inhibition, Acinetobacter venetianus (FIG. 10); type: cell-based; details: fuel present (FIG. 10)
Description: as §1, §2

[4] = test system: microbial growth in the aqueous phase; test: Treatment solution administered to jet fuel, microbial growth in the aqueous phase (FIG. 12); type: cell-based; details: 80 μg/mL final in jet fuel; stock 25 mg/mL in absolute ethanol, DiEGME or water; initial and days one to three (FIG. 12)
Description: Treatment solutions were prepared, as described above, with 25 mg/mL efflux pump inhibitor in various solvents, including absolute ethanol, DiEGME, and water. The treatment solutions were administrated to jet fuel at a final concentration in fuel of 0 μg/mL, 40 μg/mL, and 80 μg/mL. FIG. 12 illustrates results of the 80 μg/mL treatment on initial measured microbial growth in the aqueous phase as well as microbial growth after one, two, and three days.

[5] = Stability in the presence of fuel; type: physicochemical; details: activity was preserved
Text: Additional experimental results (see FIG. 10) confirm that the growth inhibition effect and the inactivity of efflux pump were effective for other bacteria, including Pseudomonas aeruginosa and Acinetobacter venetianus. The c-capped dipeptides were stable in the presence of fuel and activity was preserved.

[6] = test system: environmental bacteria (E. coli, Bacillus, and Pseudomonas); test: Antimicrobial peptide growth inhibition in 1:1 fuel-growth media mixtures; type: cell-based; details: for bacteria growth after addition to fuel: added to fuel (aqueous and fuel phase)
Description: (§3) Protegrin-1 and Magainin-2 antimicrobial peptides were added individually to the fuel phase and the aqueous (minimal media M9, Bushnell-Haas, or water) phase of 1:1 fuel-growth media mixtures containing environmental bacteria (E. coli, Bacillus, and Pseudomonas) at concentrations ranging from 1 to 1×10^9 cells/mL. Magainin 1 and 2 were obtained from Sigma-Aldrich (St. Louis, Mo.). Protegrin-1 was obtained from AnaSpec (Fremont, Calif.) or produced from a transgenic construct containing a fusion between green fluorescent protein (“GFP”) and the Protegrin-1 coding gene. The GFP-Protegrin fusion was purified by affinity chromatography and Protegrin cleaved from the fusion for use, as pure, or as a fusion in the bioassays.
(§4) The antimicrobial peptides were added at the following concentrations: 0 μg/mL, 1 μg/mL, 2.5 μg/mL, 5 μg/mL, 10 μg/mL, 20 μg/mL, 50 μg/mL, 75 μg/mL, 100 μg/mL, and 125 μg/mL in the presence and absence of fuel. Experiments using minimal media with bacteria in the presence of fuel were designed to measure the effect of fuel in combination with the antimicrobial peptide control. Control experiments contained glycerol instead of fuel as the energy source.
(§5) The antimicrobial effect of the peptides was measured every 24 hours for four days after inoculation by measuring growth through absorbance readings (OD600), DNA quantitation through qPCR, and colony counting techniques.

[7] = Partition from fuel into the aqueous phase; type: physicochemical; details: added to fuel (aqueous and fuel phase)
[8] = test system: E. coli; test: Antimicrobial peptide growth inhibition, E. coli (FIG. 6); type: cell-based; details: absence of fuel
Description: as §3, §4, §5

[9] = test system: Pseudomonas; test: Antimicrobial peptide growth inhibition, Pseudomonas (FIG. 7); type: cell-based; details: absence of fuel
Description: as §3, §4, §5

Compound | bacterial growth inhibition ([1]; 20 μg/mL) | bacterial growth inhibition ([1]; 40 μg/mL) | bacterial growth inhibition ([1]; 60 μg/mL) | bacterial growth inhibition ([1]; 80 μg/mL) | bacterial growth inhibition ([1]; 100 μg/mL) | inhibitory effect on bacterial growth ([1]; fuel not present (glycerol control), concentrations as high as 100 μg/mL (FIG. 9)) | concentration giving complete growth inhibition for up to 17 days ([1]; fuel present, up to 17 days (FIG. 11)) | microbial growth and proliferation under periodic administration ([1]; low concentration (less than 20 μg/mL) every 3 to 4 days) | growth inhibition effect and inactivity of efflux pump [2] | growth inhibition effect and inactivity of efflux pump [3] | microbial growth in the aqueous phase [4] | stability in the presence of fuel [5] | concentration required to completely inhibit bacteria growth ([6]; absence of fuel (FIG. 4)) [µg/mL] | bacteria growth after addition to fuel [6] | partition between fuel and aqueous phase [7] | concentration that prevented microbial growth ([6]; peptide added directly to the fuel phase) | concentration required to completely inhibit growth [8] [µg/mL] | concentration required to completely inhibit growth [9] [µg/mL]
Cl.Cl.N=C(N)NCCC[C@H](NC(=O)[C@@H](N)Cc1ccccc1)C(=O)Nc1ccc2ccccc2c1 [c-capped dipeptide, Phe-Arg β-naphthylamide dihydrochloride] (H-Phe-Arg-βNA) | Partial bacterial growth inhibition | complete growth inhibition | complete growth inhibition | complete growth inhibition | complete growth inhibition | not observed | greater than 80 μg/mL | prevented microbial growth and proliferation | effective | effective | significantly decreased microbial growth | stable |  |  |  |  |  | 
Magainin-2 |  |  |  |  |  |  |  |  |  |  |  |  | 125 | inhibited bacteria growth | partitioned into the aqueous phase |  |  | 
Protegrin-1 (RGGRLCYCRRRFCVCVGR; ends and bridges not checked; cysteine pairing not given here; UniProt P32194 131-148, looked up) [18 amino acid cysteine-rich β-sheet antimicrobial peptide; from AnaSpec or cleaved from a GFP-Protegrin fusion] |  |  |  |  |  |  |  |  |  |  |  |  |  | inhibited bacteria growth | partitioned into the aqueous phase | less than or equal to 1 μg/mL | 5 | 5
